{"source": "paper PMC12833730", "about": "“Discovery of a First‐in‐Class Covalent Allosteric SHP1 Inhibitor with Immunotherapeutic Activity” (Angewandte Chemie (International Ed. in English), 2025)", "key": {"SHP1": {"molecular_target": "T1, SHP1 (Homo sapiens, UniProt P29350)", "T1 construct": "SHP1, residues 245-543; made in house; host or cells: E. coli BL21(DE3)", "T1 sequence (P29350 245-543)": "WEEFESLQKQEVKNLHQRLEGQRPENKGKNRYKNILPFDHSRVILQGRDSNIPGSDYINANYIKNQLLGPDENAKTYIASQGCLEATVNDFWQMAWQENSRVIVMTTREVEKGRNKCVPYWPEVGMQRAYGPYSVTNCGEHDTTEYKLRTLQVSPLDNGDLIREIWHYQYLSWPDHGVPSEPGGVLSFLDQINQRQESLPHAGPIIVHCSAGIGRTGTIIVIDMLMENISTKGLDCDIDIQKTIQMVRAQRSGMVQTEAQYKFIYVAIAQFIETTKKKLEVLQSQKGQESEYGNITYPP", "test": "Vanadate protection jump-dilution experiment", "format": "biochemical", "experimental": "To further understand the mode of M029 action and ascertain whether M029 binds the SHP1 active site or a yet undefined novel site in SHP1, we performed a vanadate (VO4 ^3−) protection experiment. Vanadate is a reversible and competitive PTP inhibitor,^[ [76], [77] ^] and thus excessive vanadate would be expected to fully occupy the PTP active site and prevent covalent modifications of residues within the active site pocket. In this assay, SHP1 was co‐incubated with 30 µM M029 and 500 µM sodium orthovanadate or vehicle control for 30 min. The SHP1‐inhibitor complex was then rapidly diluted 100‐fold into a buffered solution containing 10 mM pNPP, and immediately, the absorbance at 405 nm was monitored over time to determine the remaining phosphatase activity."}, "MC38 colorectal tumors": {"test_system": "MC38 colorectal tumors", "test": "MC38 syngeneic tumor model", "format": "in vivo, C57BL/6 mice", "experimental": "Given its favorable PK profiles, we evaluated the antitumor activity of M029 in C57BL/6 mice bearing MC38 colorectal tumors. Mice bearing established tumors were given once daily with either saline, 25 mg/kg (IP), 25 mg/kg (PO), or 100 mg/kg (PO) M029.\nFigure 5 M029 inhibits syngeneic MC38 tumor growth by promoting infiltration and activation of both T cells and NK cells in the tumor microenvironment. […] This T cell activation was further supported by i) the increased effector CD8^+ population in the tumor microenvironment. […] Statistical analyses were performed with Graphpad Prism software 10.4.2 through the student t test or the one‐way ANOVA test using Turkey post‐hoc comparison. *p < 0.05, **p < 0.01, ***p < 0.001, and ****p < 0.0001 were considered significant. Figures are plotted as average ± standard error of the mean (SEM).\nAll the in vivo studies were performed under an animal protocol (1511001324) approved by the Institutional Animal Care & Use Committee of Purdue University, in accordance with the recommendations in the Guide for the Care and Use of Laboratory Animals of the National Institutes of Health. For PK study, C57BL6 female mice (25-30g body weight) were injected intraperitoneally, orally, or intravenously with 25 mg/kg M029 dissolved in 0.4 ml saline. Blood samples were collected through the tail vein at the indicated time points after injection. Isoflurane was used as an anesthetic. All blood samples were centrifuged at 1,500 g for 5 minutes, and plasma was separated and stored at –80°C until analysis by a validated method based on reversed-phase liquid chromatography coupled to mass-spectrometric detection (LC/MS) using a previously published procedure.^169 For the MC38 syngeneic tumor study, 12-week-old C57BL6 female mice were injected subcutaneously with […] MC38 cells in the right and left flanks for tumor growth. When tumors reached an average volume of 100 mm^3 mice were tumor size-matched and randomly assigned to different experimental groups for experiments. Four mice with eight tumors were used in each treatment group. Mice were injected orally with saline or 25 or 100 mg/kg M029 daily. Tumor sizes and animal weights were measured twice per week. Tumor volume (mm^3) = (length X width^2)/2. At the end of the experiments, mice were euthanized, and tumors were collected for analysis. Among eight tumors collected from each group, four homogenous samples and […] were prepared for Western blots and histology analysis."}}, "note": "Entries after “also recorded” stand apart in the source; their conditions may differ."}
{"smiles": "N#Cc1ccsc1NS(=O)(=O)c1ccc(NC(=O)CCl)cc1", "note": "[M029, 2-Chloro-N-(4-(N-(3-cyanothiophen-2-yl)sulfamoyl)phenyl)acetamide]", "values": [{"measurement": "SHP1 protection from inactivation by vanadate", "setting": "SHP1; 30 µM M029 + 500 µM sodium orthovanadate, 30 min, 100-fold dilution", "result": "did not show a significant difference; also recorded: not protected from M029 inactivation"}, {"measurement": "residual phosphatase activity after 100-fold jump dilution, compound alone", "setting": "SHP1; 30 µM M029, 30 min", "result": "Little residual phosphatase activity"}, {"measurement": "body weight", "setting": "MC38 colorectal tumors; 25 or 100 mg/kg oral", "result": "no significant changes"}, {"measurement": "tumor volume and tumor weight", "setting": "MC38 colorectal tumors; 25 or 100 mg/kg oral vs vehicle", "result": "significant decreases"}, {"measurement": "kidney and liver tissue sections", "setting": "MC38 colorectal tumors; IP dosing, Figure S5", "result": "No significant lesion or tissue changes"}, {"measurement": "MC38 tumor progression, 25 mg/kg IP", "setting": "MC38 colorectal tumors; once daily IP injection 25 mg/kg", "result": "effectively halted tumor progression"}, {"measurement": "MC38 tumor progression, 25 mg/kg PO", "setting": "MC38 colorectal tumors; once daily oral gavage 25 mg/kg, 25 mg/kg", "result": "effectively halted tumor progression; also recorded: significantly delayed"}, {"measurement": "MC38 tumor progression, 100 mg/kg PO", "setting": "MC38 colorectal tumors; once daily oral gavage 100 mg/kg, 100 mg/kg", "result": "effectively halted tumor progression; also recorded: significantly delayed"}, {"measurement": "signs of toxicity", "setting": "MC38 colorectal tumors; up to 100 mg/kg, body weight and organ histology", "result": "no obvious signs of toxicity"}]}
